Like-named read-outs stand apart in the source and are kept apart here.
Target: T1, F508delCFTR (Homo sapiens, UniProt P13569, DEL508-508)
T1 construct: expressed in transfected cells; host or cells: CFBE41o- human lung-derived epithelial cells (CFBE4lo-F508delCFTR-HRP), doxycycline-inducible
Assay: Cell Surface Expression-Horse Radish Peroxidase (CSE-HRP) Assay;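 for Maximum % activity (with co-corrector): co-corrector and positive control are both the same reference corrector at 2 µM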;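 for Maximum % activity (without co-corrector): percent of the 2 µM on-plate positive control corrector response above DMSO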
Assay type: cell-based
Details: for Emax / Maximum % activity (with co-corrector): maximum at any tested concentration, normalized to on-plate positive control; for Emax: read-out: Maximum % activity (without co-corrector)

[1] = test compound without co-corrector
[2] = test compound without co-corrector, read-out: EC50 (without co-corrector)
[3] = with co-corrector (2 μM of 3-[(2R,4R)-4-({[1-(2,2-difluoro-1,3-benzodioxol-5-yl)cyclopropyl]carbonyl}amino)-7-methoxy-3,4-dihydro-2H-chromen-2-yl]benzoic acid)
[4] = with co-corrector (2 μM of 3-[(2R,4R)-4-({[1-(2,2-difluoro-1,3-benzodioxol-5-yl)cyclopropyl]carbonyl}amino)-7-methoxy-3,4-dihydro-2H-chromen-2-yl]benzoic acid), read-out: EC50 (with co-corrector)

T1 sequence (P13569 with tags, fused parts or gaps DEL508-508): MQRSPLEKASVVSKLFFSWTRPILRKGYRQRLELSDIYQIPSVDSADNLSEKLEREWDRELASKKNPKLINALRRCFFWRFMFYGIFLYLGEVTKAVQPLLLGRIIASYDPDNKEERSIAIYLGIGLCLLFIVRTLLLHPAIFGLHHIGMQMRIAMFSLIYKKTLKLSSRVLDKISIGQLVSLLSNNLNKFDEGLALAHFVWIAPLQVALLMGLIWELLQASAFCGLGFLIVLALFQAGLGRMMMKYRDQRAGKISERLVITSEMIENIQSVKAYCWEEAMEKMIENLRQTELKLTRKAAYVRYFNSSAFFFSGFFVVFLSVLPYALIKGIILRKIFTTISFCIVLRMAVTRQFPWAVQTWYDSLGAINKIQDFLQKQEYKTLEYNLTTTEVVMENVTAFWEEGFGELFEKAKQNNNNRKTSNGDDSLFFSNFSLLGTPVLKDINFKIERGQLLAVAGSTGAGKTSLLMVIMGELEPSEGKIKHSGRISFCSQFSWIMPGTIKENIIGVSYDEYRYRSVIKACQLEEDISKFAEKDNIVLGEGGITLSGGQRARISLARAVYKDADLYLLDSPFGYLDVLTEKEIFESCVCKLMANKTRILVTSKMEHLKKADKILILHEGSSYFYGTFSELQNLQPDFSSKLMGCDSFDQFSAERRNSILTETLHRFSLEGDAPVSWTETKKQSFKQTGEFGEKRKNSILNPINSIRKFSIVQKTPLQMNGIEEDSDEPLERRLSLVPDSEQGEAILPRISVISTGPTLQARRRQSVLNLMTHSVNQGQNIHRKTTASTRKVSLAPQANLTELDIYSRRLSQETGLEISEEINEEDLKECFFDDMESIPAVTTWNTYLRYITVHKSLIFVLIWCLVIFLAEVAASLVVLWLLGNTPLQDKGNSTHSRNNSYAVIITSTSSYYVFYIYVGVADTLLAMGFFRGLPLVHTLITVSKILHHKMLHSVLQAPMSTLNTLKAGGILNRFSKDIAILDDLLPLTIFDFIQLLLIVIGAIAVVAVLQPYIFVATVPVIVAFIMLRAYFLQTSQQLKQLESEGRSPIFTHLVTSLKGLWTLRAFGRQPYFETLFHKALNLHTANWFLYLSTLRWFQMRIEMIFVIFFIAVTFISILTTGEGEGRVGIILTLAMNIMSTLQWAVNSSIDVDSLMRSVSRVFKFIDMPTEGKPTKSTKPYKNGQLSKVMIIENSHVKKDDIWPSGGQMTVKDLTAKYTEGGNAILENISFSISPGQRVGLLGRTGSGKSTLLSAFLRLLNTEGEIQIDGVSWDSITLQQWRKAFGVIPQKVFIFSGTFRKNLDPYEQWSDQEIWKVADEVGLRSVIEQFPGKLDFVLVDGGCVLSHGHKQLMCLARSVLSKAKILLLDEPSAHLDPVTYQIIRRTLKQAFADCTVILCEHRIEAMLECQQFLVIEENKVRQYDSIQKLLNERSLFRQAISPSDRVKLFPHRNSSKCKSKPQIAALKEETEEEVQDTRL

| Compound | Emax [1] [%] | EC50 [2] [nM] | Maximum % activity (with co-corrector) [3] | EC50 [4] [nM] |
| --- | --- | --- | --- | --- |
| COc1ccc(C(F)(F)F)cc1CN[C@@H]1[C@H](C(C)(C)C)[C@@H](C(=O)O)N(C(=O)OC(C)C)[C@H]1c1ccccc1 [II-556] | < 100 | 1000 to 10000 | ++ (≥150 and <350) | 1000 to 10000 |
| COc1nc(C(C)(C)C)ccc1CN[C@H]1[C@H](C(C)(C)C)[C@@H](C(=O)O)N(C(=O)OC(C)C)[C@H]1c1cccnc1OC(C)C [II-557] | 100 to 200 | 1000 to 10000 | +++ (≥350) | < 1000 |
| COc1cc(C(F)(F)F)ccc1CN[C@H]1[C@H](C(C)(C)C)[C@@H](C(=O)O)N(C(=O)CC(C)C)[C@H]1c1ccccc1 [II-558] | 100 to 200 | 1000 to 10000 | +++ (≥350) | 1000 to 10000 |
| COc1ccc(C2(C(F)(F)F)CC2)cc1CN[C@H]1[C@H](C(C)(C)C)[C@@H](C(=O)O)N(C(=O)OC(C)C)[C@H]1c1cccnc1N(C)C [II-559] | > 200 | 1000 to 10000 | +++ (≥350) | 1000 to 10000 |
| COc1ccc(OC(F)(F)F)cc1CN[C@H]1[C@H](C(C)(C)C)[C@@H](C(=O)O)N(C(=O)OC(C)C)[C@H]1c1ccccc1C(C)C [II-560] | > 200 | 1000 to 10000 | +++ (≥350) | < 1000 |
| COc1cc(C(F)(F)F)ccc1CN[C@H]1[C@H](C(C)(C)C)[C@@H](C(=O)O)N(C(=O)OC(C)C)[C@H]1c1ccccc1C(C)C [II-561] | > 200 | 1000 to 10000 | +++ (≥350) | < 1000 |
| COc1cc2ccccc2cc1CN[C@H]1[C@H](C(C)(C)C)[C@@H](C(=O)O)N(C(=O)OC(C)C)[C@H]1c1cccnc1N(C)C [II-562] | 100 to 200 | 1000 to 10000 | +++ (≥350) | 1000 to 10000 |
| COc1cc2c(cc1CN[C@H]1[C@H](C(C)(C)C)[C@@H](C(=O)O)N(C(=O)OC(C)C)[C@H]1c1cccnc1N(C)C)CCC2 [II-563] | 100 to 200 | 1000 to 10000 | +++ (≥350) | 1000 to 10000 |
| COc1ccc(C(C)(C)C)cc1CN[C@H]1[C@H](C(C)(C)C)[C@@H](C(=O)O)N(C(=O)CC(C)C)[C@H]1c1ccccc1 [II-564] | > 200 | 1000 to 10000 | +++ (≥350) | 1000 to 10000 |
| COc1cc2c(cc1CN[C@H]1[C@H](C(C)(C)C)[C@@H](C(=O)O)N(C(=O)OC(C)C)[C@H]1c1cccnc1N(C)C)CCCC2 [II-565] | 100 to 200 | 1000 to 10000 | +++ (≥350) | 1000 to 10000 |
| COc1ncc(C2CCC2)cc1CN[C@H]1[C@H](C(C)(C)C)[C@@H](C(=O)O)N(C(=O)[C@H]2CCCCO2)[C@H]1c1ccccc1F [II-566] | 100 to 200 | 1000 to 10000 | +++ (≥350) | 1000 to 10000 |
| COc1ccc(Cl)cc1CN[C@H]1[C@H](C(C)(C)C)[C@@H](C(=O)O)N(C(=O)OC(C)C)[C@H]1c1ccccc1C(C)C [II-567] | > 200 | 1000 to 10000 | +++ (≥350) | 1000 to 10000 |
| COc1ccc(Cl)cc1CN[C@H]1[C@H](C(C)(C)C)[C@@H](C(=O)O)N(C(=O)OC(C)C)[C@H]1c1cccnc1N(C)C [II-568] | 100 to 200 | 1000 to 10000 | ++ (≥150 and <350) | 1000 to 10000 |
| COc1ccc2c(c1)[C@@](C)(C(=O)N1[C@H](C(=O)O)[C@@H](C(C)(C)C)[C@H](NCc3cc(C(C)(C)C)ccc3OC)[C@@H]1c1cccnc1OC)CC2 [II-569] | < 100 | 1000 to 10000 | +++ (≥350) | 1000 to 10000 |
| COc1ccc2c(c1)[C@](C)(C(=O)N1[C@H](C(=O)O)[C@@H](C(C)(C)C)[C@H](NCc3cc(C(C)(C)C)ccc3OC)[C@@H]1c1cccnc1OC)CC2 [II-570] | < 100 | 1000 to 10000 | ++ (≥150 and <350) | 1000 to 10000 |
| COc1cc(C(F)(F)F)ccc1CN[C@H]1[C@H](C(C)(C)C)[C@@H](C(=O)O)N(C(=O)[C@H]2CCC[C@H](OC)C2)[C@H]1c1ccccc1 [II-571] | > 200 | 1000 to 10000 | +++ (≥350) | 1000 to 10000 |
| COc1ncc(C(F)(F)F)cc1CN[C@H]1[C@H](C(C)(C)C)[C@@H](C(=O)O)N(C(=O)[C@@H]2CCCC(F)(F)C2)[C@H]1c1cccnc1OC [II-572] | 100 to 200 | 1000 to 10000 | +++ (≥350) | < 1000 |
| COc1ccc(C(F)(F)F)cc1CN[C@H]1[C@H](C(C)(C)C)[C@@H](C(=O)O)N(C(=O)C2CCCCC2)[C@H]1c1cccnc1OC [II-573] | 100 to 200 | 1000 to 10000 | +++ (≥350) | 1000 to 10000 |

| Compound | Emax [1] [%] | EC50 [2] [nM] | Maximum % activity (with co-corrector) [3] | EC50 [4] [nM] |
| --- | --- | --- | --- | --- |
| COc1cc2c(cc1CN[C@H]1[C@H](C(C)(C)C)[C@@H](C(=O)O)N(C(=O)OC(C)C)[C@H]1c1cccnc1OC(C)C)CCC2 [II-574] | > 200 | 1000 to 10000 | +++ (≥350) | 1000 to 10000 |
| Cc1cc(C(F)(F)F)cc(N[C@H]2[C@H](C(C)(C)C)[C@@H](C(=O)O)N(C(=O)C3CCCCC3)[C@H]2c2ccccc2C)n1 [II-575] | 100 to 200 | 1000 to 10000 | +++ (≥350) | 1000 to 10000 |
| COc1ccc(C(C)(C)C)cc1CN[C@H]1[C@H](C(C)(C)C)[C@@H](C(=O)O)N(C(=O)C2CCCCC2)[C@H]1c1ccccc1C [II-576] | > 200 | < 1000 | +++ (≥350) | < 1000 |
| COc1ncc(N2CCCC2)cc1CN[C@H]1[C@H](C(C)(C)C)[C@@H](C(=O)O)N(C(=O)OC(C)C)[C@H]1c1cccnc1N(C)C [II-577] | 100 to 200 | 1000 to 10000 | +++ (≥350) | 1000 to 10000 |
| COc1ccc(C2(C)CCC2)cc1CN[C@H]1[C@H](C(C)(C)C)[C@@H](C(=O)O)N(C(=O)[C@@H]2CCCO2)[C@H]1c1ccccc1C [II-578] | > 200 | 1000 to 10000 | +++ (≥350) | < 1000 |
| COc1nc2ccccc2cc1CN[C@H]1[C@H](C(C)(C)C)[C@@H](C(=O)O)N(C(=O)OC(C)C)[C@H]1c1ccccc1C [II-579] | > 200 | 1000 to 10000 | +++ (≥350) | < 1000 |
| COc1ncc(C(F)(F)F)cc1CN[C@H]1[C@H](C(C)(C)C)[C@@H](C(=O)O)N(C(=O)OC(C)C)[C@H]1c1ccccc1C [II-580] | > 200 | 1000 to 10000 | +++ (≥350) | 1000 to 10000 |
| COc1ccc(C(F)(F)F)cc1CN[C@H]1[C@H](C(C)(C)C)[C@@H](C(=O)O)N(C(=O)OC(C)C)[C@H]1c1ccccc1C [II-581] | > 200 | 1000 to 10000 | +++ (≥350) | < 1000 |
| COc1ccc(C(C)(C)C)cc1CN[C@H]1[C@H](C(C)(C)C)[C@@H](C(=O)O)N(C(=O)OC(C)C)[C@H]1c1ccccc1C [II-582] | > 200 | 1000 to 10000 | +++ (≥350) | < 1000 |
| CC(C)OC(=O)N1[C@H](C(=O)O)[C@@H](C(C)(C)C)[C@H](NCC2CCCN(C(=O)OCc3ccccc3)C2)[C@@H]1c1ccccc1 (some centres unmarked) [II-583] | 100 to 200 | 1000 to 10000 | +++ (≥350) | 1000 to 10000 |
| CC(C)OC(=O)N1[C@H](C(=O)O)[C@@H](C(C)(C)C)[C@H](NCC2CCCC(C(F)(F)F)C2)[C@@H]1c1ccccc1 (some centres unmarked) [II-584] | < 100 | 1000 to 10000 | ++ (≥150 and <350) | 1000 to 10000 |
| COc1ncc(C2CCC2)cc1CN[C@H]1[C@H](C(C)(C)C)[C@@H](C(=O)O)N(C(=O)[C@@H]2CCCCO2)[C@H]1c1ccccc1C [II-585] | > 200 | 1000 to 10000 | +++ (≥350) | < 1000 |
| COc1ncc(C(F)(F)F)cc1CN[C@H]1[C@H](C(C)(C)C)[C@@H](C(=O)O)N(C(=O)[C@@H]2CCCO2)[C@H]1c1cccnc1C1CC1 [II-586] | < 100 | 1000 to 10000 | ++ (≥150 and <350) | 1000 to 10000 |
| COc1cc(C(F)(F)F)ccc1CN[C@H]1[C@H](C(C)(C)C)[C@@H](C(=O)O)N(C(=O)[C@@H]2CCCO2)[C@H]1c1cccnc1C1CC1 [II-587] | 100 to 200 | 1000 to 10000 | +++ (≥350) | 1000 to 10000 |
| COc1ncc(C2CCC2)cc1CN[C@H]1[C@H](C(C)(C)C)[C@@H](C(=O)O)N(C(=O)[C@@H]2CCCO2)[C@H]1c1cccnc1C1CC1 [II-588] | 100 to 200 | 1000 to 10000 | +++ (≥350) | 1000 to 10000 |
| COc1ncc(C(F)(F)F)cc1CN[C@H]1[C@H](C(C)(C)C)[C@@H](C(=O)O)N(C(=O)C2CCC(F)(F)C2)[C@H]1c1ccccc1C(C)C (some centres unmarked) [II-589] | 100 to 200 | < 1000 | +++ (≥350) | < 1000 |
| COc1ncc(C(F)(F)F)cc1CN[C@H]1[C@H](C(C)(C)C)[C@@H](C(=O)O)N(C(=O)[C@H](C)OC)[C@H]1c1ccccc1C(C)C [II-590] | 100 to 200 | 1000 to 10000 | +++ (≥350) | < 1000 |

Reference: patent publication US20180099931A1 (AbbVie S.à.r.l., priority 2016, published 2018)
